Like-named read-outs stand apart in the source and are kept apart here.

Assay [1] concerns cardiac contractility in rat. Nature of the assay: Acute pharmacodynamic effect in rat (echocardiographic fractional shortening). The class given is in vivo. The following applies: male Sprague-Dawley rats, single dose 4 mg/kg by oral gavage, percent reduction of baseline. The method, then:
Representative compounds were tested for their ability to modulate cardiac contractility in rat as a measure of in vivo target engagement. Fractional shortening, a measure of contractility, was determined by noting the change in the diameter of the left ventricle at the end of systole/contraction (LVESd) relative to diastole/relaxation (LVEDd) and expressing this change as the ratio FS=(LVEDd−LVESd)/LVEDd. Fed male Sprague-Dawley rats were lightly anesthetized with isofluorane and baseline fractional shortening was measured in the parasternal position using transthoracic echocardiography (TTE). Following this measurement, animals were recovered and received a single dose of compound (4 mg/kg) by oral gavage. At three hours post-dose, second and third echocardiograms were collected under light anesthesia to determine drug effects on contractility. Effects are represented in Table 5 as a percent reduction of baseline fractional shortening.

The subject of assay [2] is adult rat ventricular myocytes. Nature of the assay: Cardiomyocyte contractility assay (fractional shortening, IonOptix). The class given is cell-based. The following applies: Ventricular myocyte, 5 min, 5 minutes of compound; for inhibition at 0.3 µM: 0.3 uM compound; for inhibition at 1 µM: 1.0 uM compound. The method, then:
Contractility of adult rat ventricular myocytes is determined by edge detection with an IonOptix contractility system. Aliquots of myocytes in Tyrode buffer (137 mM NaCl, 3.7 mM KCL, 0.5 mM MgCl2, 1.5 mM CaCl2, 4 mM HEPES, 11 mM glucose) are placed in a perfusion chamber (Series 20 RC-27NE; Warner Instruments), allowed to adhere to the coverslip, and then perfused with 37° C. Tyrode buffer. Myocytes are filed stimulated at 1 Hz and 10V. Only myocytes with clear striations, quiescent prior to pacing, with a cell length of 120-180 microns, a basal fractional shortening equal to 3-8% of the cell length, and a contraction velocity greater than 100 microns per second are used for contractility experiments. To determine the response to compounds, myocytes are first perfused for 60 seconds with Tyrodes buffer followed by 5 minutes of compound and a 140 second washout with Tyrodes buffer. Data is continuously recorded using IonOptix software. Contractility data is analyzed using Ionwizard software (IonOptix). For each cell, 10-20 contractility transients were averaged and compared under basal (no compound) and compound-treated conditions. Compound activity is measured by effects on fractional shortening (FS), where fractional shortening is the ratio of the peak length of the cell at contraction divided by the basal cell length normalized to 100% for an untreated cell.

The next assay concerns the target T1, bovine cardiac myosin (Bos taurus, UniProt Q9BE39).
T1 construct: The source of cardiac myosin was from bovine heart in the form of skinned myofibrils; from tissue; host or cells: bovine heart, skinned myofibrils
Nature of the assay: Myosin inhibition assay (PK/LDH-coupled ATPase, bovine cardiac myofibrils). The class given is biochemical. The following applies: bovine cardiac myofibrils.

The mark [3] stands for this setting: calcium giving 75% activation (pCa75), read-out: Biochemical Activity (pCa75).
The mark [4] stands for this setting: calcium giving 50% activation (pCa50), read-out: Biochemical Activity (pCa50).

T1 sequence (Q9BE39 whole entry): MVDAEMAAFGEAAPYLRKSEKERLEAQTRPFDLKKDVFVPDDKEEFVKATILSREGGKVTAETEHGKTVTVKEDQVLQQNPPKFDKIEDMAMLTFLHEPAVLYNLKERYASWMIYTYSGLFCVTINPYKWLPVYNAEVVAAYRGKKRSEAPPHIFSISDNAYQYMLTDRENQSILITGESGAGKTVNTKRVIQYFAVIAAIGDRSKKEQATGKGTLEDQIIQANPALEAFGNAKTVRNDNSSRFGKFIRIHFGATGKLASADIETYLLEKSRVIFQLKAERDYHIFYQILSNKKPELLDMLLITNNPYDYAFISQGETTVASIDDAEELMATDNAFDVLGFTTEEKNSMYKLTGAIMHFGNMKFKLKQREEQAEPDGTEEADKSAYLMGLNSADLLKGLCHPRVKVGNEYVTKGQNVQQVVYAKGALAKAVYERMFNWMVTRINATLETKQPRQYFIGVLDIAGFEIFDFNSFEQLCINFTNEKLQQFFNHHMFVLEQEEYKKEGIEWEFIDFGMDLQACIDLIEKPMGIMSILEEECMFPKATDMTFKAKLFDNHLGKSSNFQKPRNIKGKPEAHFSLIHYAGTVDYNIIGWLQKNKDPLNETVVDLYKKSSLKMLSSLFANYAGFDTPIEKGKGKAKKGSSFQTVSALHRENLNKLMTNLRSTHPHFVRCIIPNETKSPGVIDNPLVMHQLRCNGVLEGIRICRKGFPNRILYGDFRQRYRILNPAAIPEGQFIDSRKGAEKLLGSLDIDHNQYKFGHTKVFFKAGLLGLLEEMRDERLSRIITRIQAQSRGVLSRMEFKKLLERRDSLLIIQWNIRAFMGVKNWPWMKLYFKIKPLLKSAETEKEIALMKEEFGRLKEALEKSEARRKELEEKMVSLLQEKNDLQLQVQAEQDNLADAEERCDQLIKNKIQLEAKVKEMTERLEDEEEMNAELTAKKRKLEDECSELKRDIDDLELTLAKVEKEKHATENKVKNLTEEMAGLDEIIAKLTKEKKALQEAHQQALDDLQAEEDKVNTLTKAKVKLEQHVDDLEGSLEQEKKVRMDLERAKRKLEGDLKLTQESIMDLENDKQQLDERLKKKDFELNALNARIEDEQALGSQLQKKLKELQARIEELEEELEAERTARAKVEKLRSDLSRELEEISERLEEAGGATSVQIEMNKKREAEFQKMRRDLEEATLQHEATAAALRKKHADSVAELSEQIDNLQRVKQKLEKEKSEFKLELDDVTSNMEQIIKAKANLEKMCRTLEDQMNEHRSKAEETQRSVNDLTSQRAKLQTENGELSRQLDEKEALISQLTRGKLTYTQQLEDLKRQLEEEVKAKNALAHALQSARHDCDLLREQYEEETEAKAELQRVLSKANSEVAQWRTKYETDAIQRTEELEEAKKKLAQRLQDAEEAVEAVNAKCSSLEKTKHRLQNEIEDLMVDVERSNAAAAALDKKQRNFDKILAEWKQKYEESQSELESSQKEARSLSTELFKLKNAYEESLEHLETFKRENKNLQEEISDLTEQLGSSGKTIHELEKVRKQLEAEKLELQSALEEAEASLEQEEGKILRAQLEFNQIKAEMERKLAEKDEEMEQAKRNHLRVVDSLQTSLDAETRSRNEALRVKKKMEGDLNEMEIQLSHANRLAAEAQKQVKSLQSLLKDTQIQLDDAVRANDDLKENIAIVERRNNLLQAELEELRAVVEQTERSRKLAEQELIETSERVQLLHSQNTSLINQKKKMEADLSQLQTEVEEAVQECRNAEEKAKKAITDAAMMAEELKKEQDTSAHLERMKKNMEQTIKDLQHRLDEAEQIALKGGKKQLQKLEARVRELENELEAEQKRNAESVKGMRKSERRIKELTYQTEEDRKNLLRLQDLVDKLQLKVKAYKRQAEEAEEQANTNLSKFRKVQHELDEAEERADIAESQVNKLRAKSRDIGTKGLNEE
T1 sequence (P85100 whole entry partner): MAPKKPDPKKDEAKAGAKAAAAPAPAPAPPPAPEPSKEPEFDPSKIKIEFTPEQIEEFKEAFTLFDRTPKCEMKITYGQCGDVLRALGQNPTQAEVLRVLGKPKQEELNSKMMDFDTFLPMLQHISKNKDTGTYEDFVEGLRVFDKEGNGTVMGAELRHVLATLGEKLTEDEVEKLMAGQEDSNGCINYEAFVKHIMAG
T1 sequence (Q3SZE5 whole entry partner): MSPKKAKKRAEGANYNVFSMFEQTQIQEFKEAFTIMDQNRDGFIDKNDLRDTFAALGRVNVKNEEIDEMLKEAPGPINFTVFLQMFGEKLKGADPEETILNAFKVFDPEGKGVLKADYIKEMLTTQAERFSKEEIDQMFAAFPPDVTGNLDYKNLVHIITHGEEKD
Experimental for bovine cardiac myosin: Small molecule agents were assessed for their ability to inhibit the enzymatic activity of bovine cardiac myosin using a biochemical assay that couples the release of ADP (adenosine diphosphate) from cardiac myosin to an enzymatic coupling system consisting of pyruvate kinase and lactate dehydrogenase (PK/LDH) and monitoring the absorbance decrease of NADH (at 340 nm) as a function of time. PK converts ADP to ATP (adenosine triphosphate) by converting PEP (phosphoenolpyruvate) to pyruvate. Pyruvate is then converted to lactate by LDH by converting NADH (nicotinamide adenine dinucleotide) to NAD (oxidized nicotinamide adenine dinucleotide). The source of cardiac myosin was from bovine heart in the form of skinned myofibrils. Prior to testing small molecule agents, the bovine myofibrils were assessed for their calcium responsiveness and the calcium concentration that achieves either a 50% (pCa50) or 75% (pCa75) activation of the myofibril system was chosen as the final condition for assessing the inhibitory activity of the small molecule agents. All enzymatic activity was measured in a buffered solution containing 12 mM PIPES (piperazine-N,N′-bis(2-ethanesulfonic acid), 2 mM magnesium chloride at pH 6.8 (PM 12 buffer). Final assay conditions were 1 mg/mL of bovine cardiac myofibrils, 0.4 mM PK/LDH, 50 uM ATP, 0.1 mg/mL BSA (bovine serum albumin), 10 ppm antifoam, 1 mM DTT, 0.5 mM NADH, 1.5 mM PEP at the desired free calcium concentration required to achieve either 50% or 75% activation of the myofibrils.
A dilution series of compound was created in DMSO such that the final desired concentration of compound would be achieved in a volume of 100 μL with a fixed DMSO concentration of 2% (v/v). Typically 2 μL of the dilution series were added to 96 well plate to achieve an 8 or 12 point dose response. Following the addition of 50 μL of a solution containing bovine cardiac myofibrils, PK/LDH and a solution of calcium (that achieved the desired activation), the enzymatic reaction was started with the addition of 50 μL of a solution containing ATP, PEP and NADH. The reaction progress was followed in a Molecular Devices M5e plate reader at ambient temperature using clear half area plates. The plate reader was configured to read absorbance at 340 nm in kinetics mode for 15 minutes. Data were recorded as the slope of the absorbance response to time. The slopes of the absorbance response as a function of time were normalized to slopes on the plate containing DMSO. This normalized rate was then plotted as a function of small molecule concentration and the data was fitted to a four-parameter fit using GraphPad Prism. The midpoint of this plot is the 1050 and is the concentration at which fifty percent of the total response is inhibited.

For `CC(C)n1c(=O)cc(N[C@@H](C)c2ccccc2)[nH]c1=O` [Compound 1, (S)-3-Isopropyl-6-((1-phenylethyl)amino) pyrimidine-2,4(1H,3H)-dione], the “% Reduction in Fractional Shortening 3 h post-dose” value in assay [1] was “+++ (+++ presents a relative change in fractional shortening greater than 30%)”. In assay [2], the inhibition at 0.3 µM fell in the range of 33 to 66% and the inhibition at 1 µM was greater than 66%.
As for `CC(C)n1c(=O)[nH]c(N[C@@H](C)c2ccccc2)c(F)c1=O` [Compound 2, (S)-5-Fluoro-3-isopropyl-6-((1-phenylethyl)amino)pyrimidine-2,4(1H,3H)-dione], in assay [2], the inhibition at 0.3 µM was 33 to 66% and the inhibition at 1 µM was greater than 66%. The IC50 on bovine cardiac myosin (setting [3]) lay in the range of 1000 to 15000 nM.
`C[C@H](Nc1cc(=O)n(C2CCN(S(C)(=O)=O)CC2)c(=O)[nH]1)c1ccccc1` [Compound 12, (S)-3-(1-(methylsulfonyl)piperidin-4-yl)-6-(1-phenylethylamino)pyrimidine-2,4(1H,3H)-dione]: the inhibition at 1 µM in assay [2] lay in the range of 33 to 66%. The IC50 on bovine cardiac myosin (setting [3]) was less than 1000 nM.
The compound `CC(C)n1c(=O)cc(N[C@H](C)c2ccccc2)[nH]c1=O` [Compound 19R] had an inhibition at 1 µM in assay [2] of less than 33%.
In assay [2], `CC(C)n1c(=O)cc(N[C@@H](C)c2cccc(F)c2)[nH]c1=O` [Compound 27] returned an inhibition at 0.3 µM of 33 to 66%. For the same compound, the IC50 at bovine cardiac myosin (setting [4]) and on bovine cardiac myosin (setting [3]) was less than 1000 nM in each case.
On to `C[C@H](Nc1cc(=O)n(-c2ccccc2)c(=O)[nH]1)c1ccccc1` [Compound 45], for which the “% Reduction in Fractional Shortening 3 h post-dose” value in assay [1] was “+ (+ represents a relative change in fractional shortening less than 15%)”. Moreover, the IC50 at bovine cardiac myosin (setting [4]) and on bovine cardiac myosin (setting [3]) was less than 1000 nM throughout.
Take `CCCn1c(=O)cc(N[C@@H](C)c2ccccc2)[nH]c1=O` [Compound 48, (S)-6-((1-phenylethyl)amino)-3-propylpyrimidine-2,4(1H,3H)-dione]: the “% Reduction in Fractional Shortening 3 h post-dose” value in assay [1] is on record as “+++ (+++ presents a relative change in fractional shortening greater than 30%)”. Moreover, the IC50 at bovine cardiac myosin (setting [4]) and at bovine cardiac myosin (setting [3]) was 1000 to 15000 nM throughout.
As for `C[C@H](Nc1cc(=O)n(-c2cc(F)cc(F)c2)c(=O)[nH]1)c1ccccc1` [Compound 49, (S)-3-(3,5-difluorophenyl)-6-((1-phenylethyl)amino)pyrimidine-2,4(1H,3H)-dione], in assay [1], the “% Reduction in Fractional Shortening 3 h post-dose” value was “+++ (+++ presents a relative change in fractional shortening greater than 30%)”. Moreover, the IC50 on bovine cardiac myosin (setting [4]) and at bovine cardiac myosin (setting [3]) was less than 1000 nM each time.
With `C[C@H](Nc1cc(=O)n(CC(F)(F)F)c(=O)[nH]1)c1ccc2c(c1)OCO2` [Compound 67, (S)-6-((1-(benzo[d][1,3]dioxol-5-yl)ethyl)amino)-3-(2,2,2-trifluoroethyl)pyrimidine-2,4(1H,3H)-dione], the inhibition at 1 µM in assay [2] was greater than 66%. Also, the IC50 at bovine cardiac myosin (setting [4]) was less than 1000 nM.
Take `C[C@H](Nc1cc(=O)n(C2CCC2)c(=O)[nH]1)c1ccccc1` [Compound 69, (S)-3-cyclobutyl-6-((1-phenylethyl)amino)pyrimidine-2,4(1H,3H)-dione]: the “% Reduction in Fractional Shortening 3 h post-dose” value in assay [1] was “+ (+ represents a relative change in fractional shortening less than 15%)”. In addition, the IC50 is less than 1000 nM on bovine cardiac myosin (setting [4]) and 1000 to 15000 nM on bovine cardiac myosin (setting [3]).
In the case of `CC(C)n1c(=O)cc(N[C@@H](C)c2ccccc2C(F)(F)F)[nH]c1=O` [Compound 70, (S)-3-isopropyl-6-((1-(2-(trifluoromethyl)phenyl)ethyl)amino) pyrimidine-2,4(1H,3H)-dione], the “% Reduction in Fractional Shortening 3 h post-dose” value in assay [1] is given as “++ (++ represents a relative change in fractional shortening between 15-30%)”. The IC50 on bovine cardiac myosin (setting [3]) was in the range of 1000 to 15000 nM.
For `C[C@H](Nc1cc(=O)n(C2(C)CC2)c(=O)[nH]1)c1ccccc1` [Compound 71, (S)-3-(1-methylcyclopropyl)-6-((1-phenylethyl)amino)pyrimidine-2,4(1H,3H)-dione], in assay [1], the “% Reduction in Fractional Shortening 3 h post-dose” value is given as “+++ (+++ presents a relative change in fractional shortening greater than 30%)”. Besides, the IC50 on bovine cardiac myosin (setting [4]) was less than 1000 nM.

Values taken from patent publication USRE50050E1, “Pyrimidinedione compounds” (MyoKardia, Inc., priority 2013, dated 2024).
